Results published in patent US8859232B2, “Genetically encoded photomanipulation of protein and peptide activity” (The University of North Carolina at Chapel Hill, priority 2009, dated 2014).

System: MEF cells expressing mVenus-tagged PA-Rac1
Experiment: Inhibitor studies: localized activation of PA-Rac1 in inhibitor-treated MEF cells
Assay type: cell-based, mouse
Details: Blebbistatin 1 μM, Y-27632 10 μM; for effect of inhibitor on PA-Rac1 light-induced protrusion: FIG. 6C; for effect of inhibitor on the ability of Rac1 to specify the direction of movement: FIG. 6D
Procedure: Inhibitor studies: MEF cells expressing mVenus-tagged PA-Rac1 were incubated with 1 μM myosin II inhibitor Blebbistatin, 1 μM MLCK inhibitor ML-7, or 10 μM ROCK inhibitor Y-27632 (Calbiochem). Cells underwent the cell shape changes previously described (Katsumi et al., J. Cell Biol. 158:153 (2002)) and then reached a stable state within 30 minutes. After this cells were irradiated with the 458 nm laser at a 10-μm spot to induce PA-Rac activation.
Protrusion/retraction analysis: Fluorescence images of MEF cells expressing mVenus-tagged PA-Rac1 and its mutants were masked based on intensity thresholding to produce binary images. Regions of protrusion were isolated by subtracting the binary image at a given time point from that at time 0. Conversely the binary images of retraction were obtained. Areas not part of protrusions or retractions, those that overlapped the time 0 image, were obtained by subtracting the above two images from that at time 0. Each binary image was assigned a different color: red=protrusion, blue=retraction, green=area overlapping with time 0, and white=background. These operations were carried out using MetaMorph software.
Polarity index calculation: To obtain the polarity index (cos θ) of the migrating MEF cells, X and Y coordinates were obtained for the centroid before movement (x0,y0), the centroid after movement (x1,y1), and for the center of the irradiation spot (x2,y2), using MetaMorph software. The cos and sin values of the angles were obtained using simple triangle calculations. First two angles were defined using an arbitrarily selected horizontal line θ1=angle between the arbitrary line and the line from (x0,y0) to (x1,y1), and θ2=angle between the arbitrary line and the line between (x0,y0) and (x2,y2). The cos used to characterize polarity (see FIG. 6) was obtained using the following formula: cos θ=cos(θ1−θ2)=cos θ1 cos θ2+sin θ1 sin θ2

Row | Structure (SMILES) | effect of inhibitor on PA-Rac1 light-induced protrusion | effect of inhibitor on the ability of Rac1 to specify the direction of movement
1 | C[C@@H](N)[C@H]1CC[C@H](C(=O)Nc2ccncc2)CC1 [Y-27632] | strongly reduced protrusion | little effect
2 | Cc1ccc2c(c1)C(=O)C1(O)CCN(c3ccccc3)C1=N2 (stereo not shown) [Blebbistatin] | little effect | randomization of movement
